Results reported in patent publication US20120213714A1, “Method and compositions as an adjunct for the prevention and treatment of periodontal disease” (priority 2011, published 2012).
Values after ≈ are worked out from the molar mass of the structure shown.

Test system: Porphyromonas gingivalis
Test: Porphyromonas gingivalis overnight culture, colony count on blood agar vs control
Assay type: cell-based
Protocol: After the overnight culture, the medium was diluted 1:10000 times, 5 μl of the diluted culture was applied to blood agar plate and cultured overnight. Calculated the number of colonies on the plates and compared with the control group to obtain the percentage of inhibition.

SMILES: CCCCC/C=C\C/C=C\C/C=C\CCCCC(=O)O [omega-6 fatty acids (GLA), γ-linolenic acid]
- IC50 (Porphyromonas gingivalis, overnight culture at 37° C, colonies counted vs control, read-out: IC50 / final concentration inhibiting 50% of Porphyromonas gingivalis growth): ~5 mg/L (≈ 18 µM)
- inhibition of growth of Porphyromonas gingivalis (final concentration of 1 μg/ml): significantly inhibit the growth
